The nature of data set [1]: Acute toxicity (LD50, Weil method), e.p. administration in mouse. As to conditions: in vivo, ip, Weil method N = 4 K = 4. From the text:
LD50 of the compounds of formula (I) assessed with the Weil method ("Tables for convenient calculation of median effective dose (LD50 or ED 50) and instructions in their use", Biometrics, 249-253, 1952), by e.p. administration in mouse is shown in Table 1.

The subject of data set [2] is bronchial secretion. In words: Expectorant activity (bronchial secretion in anesthetized rabbits, Perry et al.). The data set is classed as in vivo, rabbit. To be noted: 20 to 40 mg. The procedure: The tests were carried out on male rabbits, weighing 2-3 Kg, anesthetized with ethyl urethane, by following the method disclosed by Perry et al. (J. Pharm. Exp. Ther. 73, 65, 1941).
Each cannula was connected to a feeding device which delivered a steady flow-rate of pre-heated air (36°-38° C.) at constant humidity (80%). At the lower end of each cannula, a graduated cylinder was fitted, wherein the bronchial secretion was collected. All of the animals breathed spontaneously and consequently they self-regulated the air intake suitable for normal respiration. After an hour following cannula insertion, the animals were administered orally (by stomach tube) the compounds of general formula (I) dissolved in distilled water at doses comprised between 20 and 40 mg. Each dose of drug was administered to 5 animals. The control animals (8) were given water only. The amount of secretion was determined after 1, 2 and 4 hours from administration.

Data set [3] in a line: Mucolytic activity in vitro (thromboelastograph, Morandini et al.). Details: species or system human. As to conditions: 1 ml of a 10% solution of test compound. The procedure:
The tests were carried out in vitro by using the method disclosed by Morandini et al. (Lotta contro 1a tubercolosi 47, n. 4, 1977). A thromboelastograph was used to follow the variations induced by the compounds of general formula (I) and acetylcysteine on the rheological properties of human sputum.

Data set [4] relates to cough-inducing irritation. In words: Antitussive activity (citric acid aerosol induced cough). To be noted: 200 mg/Kg orally, one hour before test; for Number of coughs after treatment: 10 minutes exposure to 10% citric acid aerosol; for % Inhibition of coughs: before vs. after treatment. In kind it is in vivo, guinea pig. The procedure:
The cough-inducing irritation was studied in guinea pigs by exposing the experimental animals to an environment wherein a 10% citric acid solution was atomized by an aerosol device kept at a steady pressure with compressed air. The experimental animals were placed in a glass-walled chamber which was connected to an electrical recording apparatus suitable for counting coughs.
The period of exposure to the cough-inducing aerosol was 10 minutes. The experimental animals were subjected to a control test seven days before they were orally administered 200 mg/Kg of the compounds.

The mark [5] stands for this setting: 1 hour after oral administration.
[6] abbreviates: 2 hours after oral administration.
Where [7] appears, read: 4 hours after oral administration.

In data set [1], `CCCOC(=O)c1ccc(OC(=O)CNC(=O)C(C)SC(=O)c2cccs2)cc1` (centres unmarked) [(1), propyl p-(2-thenoylmercaptopropionylglyciloxy) benzoate] had an LD50 of 1580 mg/kg. For the same compound, the “Percentage variations ± s.e. of bronchial secretion versus basal values” is listed as “+0.9 ± 0.05%” in data set [2] (setting [5]), “+2.1 ± 0.01%” in data set [2] (setting [6]) and “+3.8 ± 0.06%” in data set [2] (setting [7]). The “Percentage drop ± s.e. of the tracing versus maximum peak (mucolytic activity index)” value turned out to be 75% in data set [3] (dilution 1/30) and 60% in data set [3] (dilution 1/60). Besides, in data set [4], the “Number of coughs after treatment” value was 39 coughs. Moreover, in data set [4], the “% Inhibition of coughs” value is 37%.
In turn, `CC(=O)Nc1ccc(OC(=O)CNC(=O)C(C)SC(=O)c2cccs2)cc1` (centres unmarked) [(2), p-(2-thenoylmercaptopropionylglyciloxy) acetamido benzene] returned an LD50 in data set [1] of 1930 mg/kg. The “Percentage variations ± s.e. of bronchial secretion versus basal values” in data set [2] (setting [5]) is on record as “+0.8 ± 0.03%”; in data set [2] (setting [6]) it was “+1.2 ± 0.04%”; in data set [2] (setting [7]) it was “+2.5 ± 0.07%”. The figures for the “Percentage drop ± s.e. of the tracing versus maximum peak (mucolytic activity index)” value in data set [3] (dilution 1/30) and in data set [3] (dilution 1/60) were 86% and 65%, respectively. Moreover, the “Number of coughs after treatment” value in data set [4] stood at 30 coughs. Further, in data set [4], the “% Inhibition of coughs” value worked out at 46%.
In data set [1], `COC(=O)c1ccccc1OC(=O)CNC(=O)C(C)SC(=O)c1cccs1` (centres unmarked) [(3), methyl o-(2-thenoylmercaptopropionylglyciloxy) benzoate] yielded a 50% lethal dose (LD50) of 1780 mg/kg. In addition, the “Percentage variations ± s.e. of bronchial secretion versus basal values” is on record as “+0.3 ± 0.05%” in data set [2] (setting [5]), “+0.9 ± 0.05%” in data set [2] (setting [6]) and “+1.4 ± 0.08%” in data set [2] (setting [7]). The “Percentage drop ± s.e. of the tracing versus maximum peak (mucolytic activity index)” value in data set [3] (dilution 1/30) came out at 85%; in data set [3] (dilution 1/60), 65%. Further, the “Number of coughs after treatment” value in data set [4] was determined as 31 coughs. In data set [4], the “% Inhibition of coughs” value was 49%.
Compound `CCOC(=O)c1ccccc1OC(=O)CNC(=O)C(C)SC(=O)c1cccs1` (centres unmarked) [(4), ethyl o-(2-thenoylmercaptopropionylglyciloxy) benzoate] gave an LD50 in data set [1] of 2150 mg/kg. The “Percentage variations ± s.e. of bronchial secretion versus basal values” was “+0.8 ± 0.03%” in data set [2] (setting [5]), “+1.9 ± 0.06%” in data set [2] (setting [6]) and “+3.0 ± 0.04%” in data set [2] (setting [7]). Also, the “Percentage drop ± s.e. of the tracing versus maximum peak (mucolytic activity index)” value came to 82% in data set [3] (dilution 1/30) and 60% in data set [3] (dilution 1/60). Also, in data set [4], the “Number of coughs after treatment” value is on record as 30 coughs. Further, the “% Inhibition of coughs” value in data set [4] worked out at 52%.
`CCCOC(=O)c1ccccc1OC(=O)CNC(=O)C(C)SC(=O)c1cccs1` (centres unmarked) [(5), propyl o-(2-thenoylmercaptopropionylglyciloxy) benzoate] displayed an LD50 in data set [1] of 2080 mg/kg. The entries for the “Percentage variations ± s.e. of bronchial secretion versus basal values” in data set [2] (setting [5]), in data set [2] (setting [6]) and in data set [2] (setting [7]) were “+0.9 ± 0.06%”, “+1.7 ± 0.05%” and “+3.2 ± 0.06%”, respectively. Besides, the “Percentage drop ± s.e. of the tracing versus maximum peak (mucolytic activity index)” value in data set [3] (dilution 1/30) amounted to 78%; in data set [3] (dilution 1/60) it was 57%. The “Number of coughs after treatment” value in data set [4] is 28 coughs. Also, the “% Inhibition of coughs” value in data set [4] is recorded as 49%.
In turn, `CCCCOC(=O)c1ccccc1OC(=O)CNC(=O)C(C)SC(=O)c1cccs1` (centres unmarked) [(6), butyl o-(2-thenoylmercaptopropionylglyciloxy) benzoate] yielded an LD50 in data set [1] of 1800 mg/kg. In addition, the “Percentage variations ± s.e. of bronchial secretion versus basal values” in data set [2] (setting [5]) is given as “+0.5 ± 0.04%”; in data set [2] (setting [6]), “+1.0 ± 0.06%”; in data set [2] (setting [7]), “+1.9 ± 0.04%”. For the same compound, the figures for the “Percentage drop ± s.e. of the tracing versus maximum peak (mucolytic activity index)” value in data set [3] (dilution 1/30) and in data set [3] (dilution 1/60) were 75% and 55%, respectively. Also, the “Number of coughs after treatment” value in data set [4] is listed as 25 coughs. The “% Inhibition of coughs” value in data set [4] is recorded as 49%.
For `CC(=O)N[C@@H](CS)C(=O)O` [Acetylcysteine, acetylcysteine, reference compound], the “Percentage drop ± s.e. of the tracing versus maximum peak (mucolytic activity index)” value came out at 75% in data set [3] (dilution 1/30) and 22% in data set [3] (dilution 1/60).

Values taken from patent US4472424A, “Esters of 2-thenoylmercaptopropionylglycine with substituted hydroxybenzenes, process for their preparation and pharmaceutical compositions containing same” (Sigma-Tau Industrie Farmaceutiche Riunite S.p.A., priority 1981, dated 1984).
